Test results as given in the NIST ThermoML archive (doi:10.1021/je050414d).

Assay: xn = mol fraction of the nth substance listed
Conditions: 101 kPa, Liquid; for viscosity: Capillary tube (Ostwald / Ubbelohde) method

CCOC(=O)OCC [diethyl carbonate] + CO
Conditions | mass density [kg/m3] | viscosity [mPa·s]
293.15 K, x1 = 0.1045 | 839.93 | 0.599
293.15 K, x1 = 0.2128 | 874.69 | 0.622
293.15 K, x1 = 0.2835 | 892.08 | 0.634
293.15 K, x1 = 0.4025 | 915.12 | 0.655
293.15 K, x1 = 0.5161 | 932.04 | 0.679
293.15 K, x1 = 0.6057 | 942.83 | 0.7
293.15 K, x1 = 0.7015 | 952.67 | 0.723
293.15 K, x1 = 0.8 | 961.18 | 0.747
293.15 K, x1 = 0.8845 | 967.44 | 0.772
293.15 K, x1 = 1 | 975 | 0.801
298.15 K, x1 = 0.1045 | 834.64 | 0.567
298.15 K, x1 = 0.2128 | 869.33 | 0.588
298.15 K, x1 = 0.2835 | 886.65 | 0.598
298.15 K, x1 = 0.4025 | 909.56 | 0.616
298.15 K, x1 = 0.5161 | 926.35 | 0.637
298.15 K, x1 = 0.6057 | 937.11 | 0.656
298.15 K, x1 = 0.7015 | 946.89 | 0.677
298.15 K, x1 = 0.8 | 955.37 | 0.696
298.15 K, x1 = 0.8845 | 961.65 | 0.715
298.15 K, x1 = 1 | 968.97 | 0.746
303.15 K, x1 = 0.1045 | 829.8 | 0.527
303.15 K, x1 = 0.2128 | 864.12 | 0.546
303.15 K, x1 = 0.2835 | 881.42 | 0.556
303.15 K, x1 = 0.4025 | 904.25 | 0.573
303.15 K, x1 = 0.5161 | 921 | 0.593
303.15 K, x1 = 0.6057 | 931.74 | 0.611
303.15 K, x1 = 0.7015 | 941.49 | 0.63
303.15 K, x1 = 0.8 | 949.97 | 0.651
303.15 K, x1 = 0.8845 | 956.23 | 0.671
303.15 K, x1 = 1 | 962.39 | 0.695
313.15 K, x1 = 0.1045 | 819.68 | 0.462
313.15 K, x1 = 0.2128 | 853.64 | 0.48
313.15 K, x1 = 0.2835 | 870.71 | 0.49
313.15 K, x1 = 0.4025 | 893.3 | 0.503
313.15 K, x1 = 0.5161 | 909.94 | 0.521
313.15 K, x1 = 0.6057 | 920.59 | 0.537
313.15 K, x1 = 0.7015 | 930.26 | 0.556
313.15 K, x1 = 0.8 | 938.67 | 0.572
313.15 K, x1 = 0.8845 | 944.93 | 0.587
313.15 K, x1 = 1 | 952.32 | 0.61
323.15 K, x1 = 0.1045 | 809.45 | 0.408
323.15 K, x1 = 0.2128 | 843 | 0.424
323.15 K, x1 = 0.2835 | 859.86 | 0.432
323.15 K, x1 = 0.4025 | 882.25 | 0.444
323.15 K, x1 = 0.5161 | 898.72 | 0.461
323.15 K, x1 = 0.6057 | 909.28 | 0.477
323.15 K, x1 = 0.7015 | 918.88 | 0.493
323.15 K, x1 = 0.8 | 927.24 | 0.507
323.15 K, x1 = 0.8845 | 933.43 | 0.523
323.15 K, x1 = 1 | 939.78 | 0.541
333.15 K, x1 = 0.1045 | 796.31 | 0.363
333.15 K, x1 = 0.2128 | 830.09 | 0.376
333.15 K, x1 = 0.2835 | 847.11 | 0.384
333.15 K, x1 = 0.4025 | 869.76 | 0.397
333.15 K, x1 = 0.5161 | 886.44 | 0.41
333.15 K, x1 = 0.6057 | 897.15 | 0.426
333.15 K, x1 = 0.7015 | 906.9 | 0.441
333.15 K, x1 = 0.8 | 915.39 | 0.454
333.15 K, x1 = 0.8845 | 921.71 | 0.466
333.15 K, x1 = 1 | 928.69 | 0.483
